This note sets out measurements from patent publication US7247440B2, “Method of screening preventives or remedies for obesity” (Takeda Pharmaceutical Company Limited, priority 2001, dated 2007).

By EC50 is commonly meant the concentration giving half of the maximal effect. Higher therefore signals a need for much substance.

Structures are written as SMILES. Where a SMILES comes first, the peptide text is derived from it. Some results are limits rather than exact numbers.

The experiment concerns the target T1, GPR7 (Homo sapiens, UniProt P48145).
T1 construct: expressed in transfected cells; host or cells: CHO dhfr- cells, plasmid pAKKO-Human GPR7 (high-expression clones 7, 8, 14)
T1 sequence (P48145 1-328): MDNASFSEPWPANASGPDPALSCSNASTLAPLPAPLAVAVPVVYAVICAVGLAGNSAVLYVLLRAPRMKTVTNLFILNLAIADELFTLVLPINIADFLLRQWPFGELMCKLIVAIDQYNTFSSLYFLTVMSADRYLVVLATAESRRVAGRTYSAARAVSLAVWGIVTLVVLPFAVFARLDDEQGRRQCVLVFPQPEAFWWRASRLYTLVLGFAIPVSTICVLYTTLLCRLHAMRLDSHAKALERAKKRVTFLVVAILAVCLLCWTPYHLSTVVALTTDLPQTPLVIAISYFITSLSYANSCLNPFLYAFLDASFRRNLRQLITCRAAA
Put plainly: GTPγS-binding promoting activity on GPR7-expressed CHO cell membrane fraction. In kind it is biochemical. How it is done: The [^35S]-guanosine 5′-(γ-thio)triphosphate (GTPγS) binding promoting activity on the GPR7-expressed CHO cell membrane fraction was assayed by the following procedures.
The GPR7-expressed CHO cell membrane fraction prepared by the method described in EXAMPLE 2 was diluted with a membrane dilution buffer (50 mM Tris-hydrochloride buffer (pH 7.4), 5 mM MgCl2, 150 mM NaCl, 1 μM GDP and 0.1% BSA) to prepare a cell membrane fraction solution for assay having a protein level of 30 μg/ml. To 200 μl of the cell membrane fraction solution for assay were added 2 μl of 50 nM [^35S]-guanosine 5′-(γ-thio)triphosphate (NEN Co.) and 2 μl of a sample solution in DMSO, which was adjusted to an appropriate concentration. The resulting mixture was kept warm at 25° C. for an hour. The mixture was filtrated through a filter. After the filter was washed twice with 1.5 ml of a wash buffer (50 mM Tris-hydrochloride buffer (pH 7.4), 5 mM MgCl2, 1 mM EDTA and 0.1% BSA), radioactivity of the filter was measured with a liquid scintillation counter.
Following the procedures described in 1) above, hGPR8L (1-23) or hGPR8L (1-30) were given to the GPR7-expressed CHO cell membrane fraction in various concentrations to assay for the GTPγS-binding promoting activity. […]

For the molecule `CSCC[C@H](NC(=O)[C@H](CC(C)C)NC(=O)[C@H](CC(C)C)NC(=O)CNC(=O)[C@H](C)NC(=O)[C@H](C)NC(=O)[C@H](CCCNC(=N)N)NC(=O)CNC(=O)[C@@H](NC(=O)[C@@H](NC(=O)[C@H](Cc1c[nH]cn1)NC(=O)[C@H](Cc1ccc(O)cc1)NC(=O)[C@@H](N)CCCNC(=N)N)[C@@H](C)O)C(C)C)C(=O)NCC(=O)N[C@@H](CC(C)C)C(=O)O` [hGPR8L(9–23), Arg-Tyr-His-Thr-Val-Gly-Arg-Ala-Ala-Gly-Leu-Leu-Met-Gly-Leu] (H-RYHTVGRAAGLLMGL-OH; C-terminus assumed), the EC50 was over 10000 nM.
As for `CSCC[C@H](NC(=O)[C@H](CC(C)C)NC(=O)[C@H](CC(C)C)NC(=O)CNC(=O)[C@H](C)NC(=O)[C@H](C)NC(=O)[C@H](CCCNC(=N)N)NC(=O)CNC(=O)[C@@H](NC(=O)[C@@H](NC(=O)[C@H](Cc1c[nH]cn1)NC(=O)[C@H](Cc1ccc(O)cc1)NC(=O)[C@H](CCCNC(=N)N)NC(=O)[C@@H]1CCCN1C(=O)[C@H](CO)NC(=O)[C@H](C)NC(=O)[C@@H](NC(=O)[C@@H](N)Cc1c[nH]cn1)C(C)C)[C@@H](C)O)C(C)C)C(=O)NCC(=O)N[C@@H](CC(C)C)C(=O)O` [hGPR8L(4–23)] (H-HVASPRYHTVGRAAGLLMGL-OH; C-terminus assumed), the figure is over 10000 nM.
